According to patent US4439426A, “Semisynthetic macrolidic antibiotics, intermediate compounds for their preparation and related pharmaceutical compositions containing them” (priority 1981, dated 1984):
Values after ≈ are worked out from the molar mass of the structure shown.

Legend:
Assay type in all cases: cell-based
[1] = tested on: Acholeplasma laidlawii ATCC 23206 LRP 204; experiment: Bacteriostatic power in solid medium (MIC); conditions: solid medium
Excerpt: (§1) the bacteriostatic power, expressed as the minimum inhibiting concentration (MIC) against both aerobic and anaerobic, Gram positive and Gram negative, bacterial stocks: the related results are reported in the tables 2 and 3.

Bacillus subtilis LRP 25 = experiment: Bacteriostatic power in solid medium (MIC); conditions: solid medium
Excerpt: as §1

[2] = tested on: Bacteroides fragilis ATCC 23745 LRP 205; experiment: Bacteriostatic power in solid medium (MIC); conditions: solid medium, anaerobic
Excerpt: as §1

[3] = tested on: Corynebacterium diphteriae LRP 24; experiment: Bacteriostatic power in solid medium (MIC); conditions: solid medium
Excerpt: as §1

Escherichia coli LRP 50 = experiment: Bacteriostatic power in solid medium (MIC); conditions: solid medium
Excerpt: as §1

[4] = tested on: Fusobacteriumnecrophroum ATCC 27852 LRP 210; experiment: Bacteriostatic power in solid medium (MIC); conditions: solid medium, anaerobic
Excerpt: as §1

[5] = tested on: Haemophilus influenzae ATCC 19418 LRP 213; experiment: Bacteriostatic power in solid medium (MIC)
Excerpt: as §1

[6] = tested on: Klelsiella pneumoniae LRP 54; experiment: Bacteriostatic power in solid medium (MIC); conditions: solid medium
Excerpt: as §1

[7] = tested on: Micrococcus luteus ATCC 15957 LRP 193; experiment: Bacteriostatic power in solid medium (MIC); conditions: solid medium, Erythromycin resistant
Excerpt: as §1

[8] = tested on: Micrococcus luteus ATCC 9341 LRP 6; experiment: Bacteriostatic power in solid medium (MIC); conditions: solid medium
Excerpt: as §1

[9] = tested on: Mycoplasma hominis I ATCC 14027 LRP 211; experiment: Bacteriostatic power in solid medium (MIC); conditions: solid medium
Excerpt: as §1

[10] = tested on: Neisseria gonorrhoeae ATCC 19424 LRP 214; experiment: Bacteriostatic power in solid medium (MIC); conditions: solid medium
Excerpt: as §1

[11] = tested on: Proteus vulgaris ATCC 6380 LRP 13; experiment: Bacteriostatic power in solid medium (MIC); conditions: solid medium
Excerpt: as §1

[12] = tested on: Pseudomonas aeruginosa LRP 9; experiment: Bacteriostatic power in solid medium (MIC); conditions: solid medium
Excerpt: as §1

Shigella sonnei LRP 5 = experiment: Bacteriostatic power in solid medium (MIC); conditions: LRP5, read-out: Minimum inhibiting concentration
Excerpt: as §1

[13] = tested on: Staphylococcus aureus ATCC 14154 LRP 78; experiment: Bacteriostatic power in solid medium (MIC)
Excerpt: as §1

[14] = tested on: Staphylococcus aureus ATCC 6538P LRP 14; experiment: Bacteriostatic power in solid medium (MIC); conditions: solid medium, Penycilline resistant
Excerpt: as §1

[15] = tested on: Staphylococcus aureus ATCC 6538P LRP 39; experiment: Bacteriostatic power in solid medium (MIC); conditions: solid medium
Excerpt: as §1

[16] = tested on: Streptococcus faecalis LRP 7; experiment: Bacteriostatic power in solid medium (MIC); conditions: solid medium
Excerpt: as §1

[17] = tested on: Streptococcus faecalis subsp. zymogenes ATCC 12958 LRP 61; experiment: Bacteriostatic power in solid medium (MIC); conditions: solid medium
Excerpt: as §1

[18] = tested on: Streptococcus pneumoniae ATCC 6303 LRP 35; experiment: Bacteriostatic power in solid medium (MIC); conditions: solid medium
Excerpt: as §1

[19] = tested on: Streptococcus pneumoniae ATCC 6303 LRP 52; experiment: Bacteriostatic power in solid medium (MIC); conditions: solid medium
Excerpt: as §1

[20] = tested on: Streptococcus pneumoniae ATCC 6303 LRP 53; experiment: Bacteriostatic power in solid medium (MIC); conditions: solid medium
Excerpt: as §1

[21] = tested on: Streptococcus pyogenes ATCC 8668 LRP 197; experiment: Bacteriostatic power in solid medium (MIC); conditions: solid medium
Excerpt: as §1

[22] = tested on: Streptococcus pyogenes ATCC 8668 LRP 34; experiment: Bacteriostatic power in solid medium (MIC); conditions: solid medium
Excerpt: as §1

[23] = tested on: Clostridium perfrigens ATCC 3624 LRP 206; experiment: microbe, parasite or virus in culture; conditions: ATCC3624, solid medium, anaerobic, read-out: Minimum inhibiting concentration
Excerpt: as §1

Salmonella typhy LRP 8 = experiment: microbe, parasite or virus in culture; conditions: LRP8, solid medium, read-out: Minimum inhibiting concentration
Excerpt: as §1

[24] = tested on: Corynebacterium diphteriae LRP 24; experiment: Bacteriostatic power in liquid medium (MIC); conditions: liquid medium
Excerpt: as §1

[25] = tested on: Staphylococcus aureus ATCC 6538 P LRP 39; experiment: Bacteriostatic power in liquid medium (MIC); conditions: liquid medium
Excerpt: as §1

[26] = tested on: Streptococcus faecalis subs. zymogenes ATCC 12958 LRP 61; experiment: Bacteriostatic power in liquid medium (MIC); conditions: liquid medium
Excerpt: as §1

[27] = tested on: Streptococcus pneumoniae ATCC 6303 LRP 35; experiment: Bacteriostatic power in liquid medium (MIC); conditions: liquid medium
Excerpt: as §1

[28] = tested on: Streptococcus pyogenes ATCC 8668 LRP 34; experiment: Bacteriostatic power in liquid medium (MIC); conditions: liquid medium
Excerpt: as §1

[29] = tested on: Corynebacterium diphteriae LRP 24; experiment: Minimum bactericidal concentration (MBC)
Excerpt: (§2) the bacterial power, expressed as the minimum bactericidal power (MBC) against some Gram positive aerobic stocks (table 5).

[30] = tested on: Staphylococcus aureus ATCC 6538 P LRP 39; experiment: Minimum bactericidal concentration (MBC)
Excerpt: as §2

[31] = tested on: Streptococcus faecalis subs. zymogenes LRP 61; experiment: Minimum bactericidal concentration (MBC)
Excerpt: as §2

[32] = tested on: Streptococcus pneumoniae ATCC 6303 LRP 35; experiment: Minimum bactericidal concentration (MBC)
Excerpt: as §2

[33] = tested on: Streptococcus pyogenes ATCC 8668 LRP 34; experiment: Minimum bactericidal concentration (MBC)
Excerpt: as §2

[34] = Corynebacterium, LRP24, read-out: Minimum inhibiting concentration
[35] = read-out: Minimum inhibiting concentration
[36] = Staphylococcus aureus, ATCC6538P, read-out: Minimum inhibiting concentration
[37] = Enterococcus faecalis, ATCC12958, read-out: Minimum inhibiting concentration
[38] = Streptococcus pneumoniae, ATCC6303, read-out: Minimum inhibiting concentration
[39] = Streptococcus pyogenes, ATCC8668, read-out: Minimum inhibiting concentration

CO[C@H]1C[C@H](O[C@H]2[C@H](C)[C@@H](O[C@@H]3O[C@H](C)C[C@H](N(C)C)[C@H]3O)[C@@H](C)C[C@@]3(CO3)C(=O)[C@H](C)[C@@H](O)[C@@H](C)[C@@H](C)OC(=O)[C@@H]2C)O[C@@H](C)[C@@H]1O [Oleandomycin, reference compound]
MIC ([1]; Acholeplasma laidlawii, ATCC23206, read-out: Minimum inhibiting concentration): 6.25 µg/mL (≈ 9.09 µM) | MIC (Bacillus subtilis LRP 25; Bacillus subtilis, LRP25, read-out: Minimum inhibiting concentration): 0.39 µg/mL (≈ 0.567 µM) | MIC ([2]; Bacteroides fragilis, ATCC23745, read-out: Minimum inhibiting concentration): 0.39 µg/mL (≈ 0.567 µM) | MIC [3, 34]: 0.097 µg/mL (≈ 0.141 µM) | MIC (Escherichia coli LRP 50; Escherichia coli, LRP50, read-out: Minimum inhibiting concentration): 25 µg/mL (≈ 36.3 µM) | MIC [4, 35]: 6.25 µg/mL (≈ 9.09 µM) | MIC ([5]; Haemophilus influenzae, ATCC19418, read-out: Minimum inhibiting concentration): 25 µg/mL (≈ 36.3 µM) | MIC [6, 35]: 25 µg/mL (≈ 36.3 µM) | MIC ([7]; Micrococcus luteus, ATCC15957, read-out: Minimum inhibiting concentration): 25 µg/mL (≈ 36.3 µM) | MIC ([8]; Micrococcus luteus, ATCC9341, read-out: Minimum inhibiting concentration): 0.049 µg/mL (≈ 0.0712 µM) | MIC ([9]; Metamycoplasma hominis, ATCC14027, read-out: Minimum inhibiting concentration): 25 µg/mL (≈ 36.3 µM) | MIC ([10]; Neisseria gonorrhoeae, ATCC19424, read-out: Minimum inhibiting concentration): 0.39 µg/mL (≈ 0.567 µM) | MIC ([11]; Proteus vulgaris, ATCC6380, read-out: Minimum inhibiting concentration): 25 µg/mL (≈ 36.3 µM) | MIC ([12]; Pseudomonas aeruginosa, LRP9, read-out: Minimum inhibiting concentration): 25 µg/mL (≈ 36.3 µM) | MIC (Shigella sonnei LRP 5): 25 µg/mL (≈ 36.3 µM) | MIC ([13]; Staphylococcus aureus, ATCC14154, read-out: Minimum inhibiting concentration): 25 µg/mL (≈ 36.3 µM) | MIC [14, 36]: 0.39 µg/mL (≈ 0.567 µM) | MIC [15, 36]: 0.39 µg/mL (≈ 0.567 µM) | MIC ([16]; Enterococcus faecalis, LRP7, read-out: Minimum inhibiting concentration): 1.56 µg/mL (≈ 2.27 µM) | MIC [17, 37]: 1.56 µg/mL (≈ 2.27 µM) | MIC [18, 38]: 0.195 µg/mL (≈ 0.283 µM) | MIC [19, 38]: 0.195 µg/mL (≈ 0.283 µM) | MIC [20, 38]: 0.195 µg/mL (≈ 0.283 µM) | MIC [21, 39]: 0.195 µg/mL (≈ 0.283 µM) | MIC [22, 39]: 0.195 µg/mL (≈ 0.283 µM) | MIC [23]: 3.12 µg/mL (≈ 4.54 µM) | MIC (Salmonella typhy LRP 8): 25 µg/mL (≈ 36.3 µM) | MIC [24, 34]: 0.097 µg/mL (≈ 0.141 µM) | MIC ([25]; Staphylococcus aureus, ATCC6538, read-out: Minimum inhibiting concentration): 0.39 µg/mL (≈ 0.567 µM) | MIC [26, 37]: 1.56 µg/mL (≈ 2.27 µM) | MIC [27, 38]: 0.195 µg/mL (≈ 0.283 µM) | MIC [28, 39]: 0.195 µg/mL (≈ 0.283 µM) | MBC/MIC [29]: 4 | MBC ([29]; Corynebacterium, LRP24, read-out: Minimum bactericidal concentration (MBC)): 0.39 µg/mL (≈ 0.567 µM) | MBC/MIC [30]: 16 | MBC ([30]; Staphylococcus aureus, ATCC6538, read-out: Minimum bactericidal concentration (MBC)): 6.25 µg/mL (≈ 9.09 µM) | MBC/MIC [31]: > 8 | MBC ([31]; Enterococcus faecalis, read-out: Minimum bactericidal concentration (MBC)): > 12.5 µg/mL | MBC/MIC [32]: 4 | MBC ([32]; Streptococcus pneumoniae, ATCC6303, read-out: Minimum bactericidal concentration (MBC)): 0.78 µg/mL (≈ 1.13 µM) | MBC/MIC [33]: 16 | MBC ([33]; Streptococcus pyogenes, ATCC8668, read-out: Minimum bactericidal concentration (MBC)): 3.12 µg/mL (≈ 4.54 µM)

(8S)-8-fluoroerythromycin A carbonate [P80206 carbonate]
Minimum inhibiting concentration [1]: 0.195 µg/mL | Minimum inhibiting concentration (Bacillus subtilis LRP 25): 0.049 µg/mL | Minimum inhibiting concentration [2]: 0.78 µg/mL | Minimum inhibiting concentration [3]: 0.024 µg/mL | Minimum inhibiting concentration (Escherichia coli LRP 50): 3.12 µg/mL | Minimum inhibiting concentration [4]: 6.25 µg/mL | Minimum inhibiting concentration ([5]; solid medium): 6.25 µg/mL | Minimum inhibiting concentration [6]: 12.5 µg/mL | Minimum inhibiting concentration [7]: 25 µg/mL | Minimum inhibiting concentration [8]: 0.024 µg/mL | Minimum inhibiting concentration [9]: 25 µg/mL | Minimum inhibiting concentration [10]: 0.049 µg/mL | Minimum inhibiting concentration [11]: 25 µg/mL | Minimum inhibiting concentration [12]: 25 µg/mL | Minimum inhibiting concentration ([13]; solid medium, Erythromycin resistant): 25 µg/mL | Minimum inhibiting concentration [14]: 0.097 µg/mL | Minimum inhibiting concentration [15]: 0.097 µg/mL | Minimum inhibiting concentration [16]: 0.097 µg/mL | Minimum inhibiting concentration [17]: 0.097 µg/mL | Minimum inhibiting concentration [18]: 0.012 µg/mL | Minimum inhibiting concentration [19]: 0.012 µg/mL | Minimum inhibiting concentration [20]: 0.012 µg/mL | Minimum inhibiting concentration [21]: 0.024 µg/mL | Minimum inhibiting concentration [22]: 0.012 µg/mL | Minimum inhibiting concentration [24]: 0.024 µg/mL | Minimum inhibiting concentration [25]: 0.39 µg/mL | Minimum inhibiting concentration [26]: 0.195 µg/mL | Minimum inhibiting concentration [27]: 0.049 µg/mL | Minimum inhibiting concentration [28]: 0.024 µg/mL
